Reference: patent US12172995B2, “Substituted indole and indazole compounds” (BRISTOL-MYERS SQUIBB COMPANY, priority 2018, dated 2024)

Experiments:
Format in all cases: cell-based
human TLR7 = biological target: T1, human TLR7 (Homo sapiens, UniProt Q9NYK1); assay: TLR7 inhibition reporter assay (HEK-Blue SEAP); settings: HEK-Blue cells overexpressing human TLR7, stimulated with gardiquimod 7.5 μM, 22 hour incubation
T1 construct: host or cells: HEK-Blue cells
T1 sequence (Q9NYK1 27-1049): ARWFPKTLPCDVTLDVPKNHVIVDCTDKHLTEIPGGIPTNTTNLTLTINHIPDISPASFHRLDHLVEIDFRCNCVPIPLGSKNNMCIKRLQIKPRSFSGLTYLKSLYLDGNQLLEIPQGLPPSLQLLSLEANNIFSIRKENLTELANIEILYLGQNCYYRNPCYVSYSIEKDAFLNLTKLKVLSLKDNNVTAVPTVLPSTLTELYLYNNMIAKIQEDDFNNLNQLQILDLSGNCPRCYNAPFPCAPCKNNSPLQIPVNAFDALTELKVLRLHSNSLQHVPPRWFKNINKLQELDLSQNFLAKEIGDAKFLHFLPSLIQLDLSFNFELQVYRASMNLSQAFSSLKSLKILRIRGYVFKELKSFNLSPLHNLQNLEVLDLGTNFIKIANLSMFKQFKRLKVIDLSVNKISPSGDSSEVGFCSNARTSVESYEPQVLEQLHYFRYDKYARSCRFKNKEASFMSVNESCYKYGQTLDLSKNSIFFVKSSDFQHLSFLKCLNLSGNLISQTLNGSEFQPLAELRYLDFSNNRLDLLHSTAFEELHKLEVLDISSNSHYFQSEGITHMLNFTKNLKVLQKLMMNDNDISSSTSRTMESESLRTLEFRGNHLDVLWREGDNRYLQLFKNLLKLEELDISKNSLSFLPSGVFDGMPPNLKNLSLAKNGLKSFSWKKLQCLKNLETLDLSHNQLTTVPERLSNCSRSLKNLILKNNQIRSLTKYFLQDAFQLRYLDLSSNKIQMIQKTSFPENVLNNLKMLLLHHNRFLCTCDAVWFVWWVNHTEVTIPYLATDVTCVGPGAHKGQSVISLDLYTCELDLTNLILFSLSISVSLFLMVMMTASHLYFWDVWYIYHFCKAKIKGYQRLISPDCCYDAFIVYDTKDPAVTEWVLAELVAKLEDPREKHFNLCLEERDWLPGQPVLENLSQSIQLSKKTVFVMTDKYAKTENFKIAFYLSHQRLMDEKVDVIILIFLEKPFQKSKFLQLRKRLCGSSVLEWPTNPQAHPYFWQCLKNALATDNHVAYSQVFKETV
How it was run: (§1)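 HEK-Blue cells overexpressing human TLR7, TLR8 or TLR9 with an NF-κB/AP-1-driven SEAP reporter were pre-treated 30 min at room temperature with compound (0.05 nM to 50 μM), then stimulated with gardiquimod 7.5 μM (TLR7), R848 15.9 μM (TLR8) or ODN2006 5 nM (TLR9). SEAP measured after 22 h at 37° C; inhibition normalized between agonist-plus-DMSO and reference-inhibitor wells.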

human TLR8 = biological target: T2, human TLR8 (Homo sapiens, UniProt Q9NR97); assay: TLR8 inhibition reporter assay (HEK-Blue SEAP); settings: HEK-Blue cells overexpressing human TLR8, stimulated with R848 15.9 μM, 22 hour incubation
T2 construct: host or cells: HEK-Blue cells
T2 sequence (Q9NR97 27-1041): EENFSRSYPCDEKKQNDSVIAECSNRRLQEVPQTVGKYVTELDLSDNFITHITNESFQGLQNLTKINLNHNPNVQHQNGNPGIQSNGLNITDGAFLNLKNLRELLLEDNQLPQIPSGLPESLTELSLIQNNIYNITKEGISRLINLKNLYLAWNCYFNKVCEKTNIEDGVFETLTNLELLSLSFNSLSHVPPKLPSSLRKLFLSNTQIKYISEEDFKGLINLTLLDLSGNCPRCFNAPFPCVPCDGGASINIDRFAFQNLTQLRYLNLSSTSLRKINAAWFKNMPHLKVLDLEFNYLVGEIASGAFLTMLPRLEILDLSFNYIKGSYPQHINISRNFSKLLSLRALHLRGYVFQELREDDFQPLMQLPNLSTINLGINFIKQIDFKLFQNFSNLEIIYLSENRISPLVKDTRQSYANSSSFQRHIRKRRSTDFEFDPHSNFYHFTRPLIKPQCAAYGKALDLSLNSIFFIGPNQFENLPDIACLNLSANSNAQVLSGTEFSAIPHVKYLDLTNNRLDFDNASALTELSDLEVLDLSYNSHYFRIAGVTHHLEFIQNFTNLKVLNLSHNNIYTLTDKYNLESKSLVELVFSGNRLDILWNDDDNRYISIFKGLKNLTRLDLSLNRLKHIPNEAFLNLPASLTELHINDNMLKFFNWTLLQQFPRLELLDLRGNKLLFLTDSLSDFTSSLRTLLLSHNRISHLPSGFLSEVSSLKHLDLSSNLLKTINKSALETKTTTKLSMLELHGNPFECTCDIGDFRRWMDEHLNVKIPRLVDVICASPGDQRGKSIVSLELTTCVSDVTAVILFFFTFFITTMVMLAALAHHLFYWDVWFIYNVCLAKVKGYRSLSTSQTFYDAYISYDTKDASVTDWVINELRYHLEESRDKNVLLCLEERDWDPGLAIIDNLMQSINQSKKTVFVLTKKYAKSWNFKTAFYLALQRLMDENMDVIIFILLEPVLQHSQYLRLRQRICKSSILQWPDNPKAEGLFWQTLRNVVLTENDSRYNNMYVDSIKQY
How it was run: as §1

human TLR9 = biological target: T3, human TLR9 (Homo sapiens, UniProt Q9NR96); assay: TLR9 inhibition reporter assay (HEK-Blue SEAP); settings: HEK-Blue cells overexpressing human TLR9, stimulated with ODN2006 5 nM, 22 hour incubation
T3 construct: host or cells: HEK-Blue cells
T3 sequence (Q9NR96 26-1032): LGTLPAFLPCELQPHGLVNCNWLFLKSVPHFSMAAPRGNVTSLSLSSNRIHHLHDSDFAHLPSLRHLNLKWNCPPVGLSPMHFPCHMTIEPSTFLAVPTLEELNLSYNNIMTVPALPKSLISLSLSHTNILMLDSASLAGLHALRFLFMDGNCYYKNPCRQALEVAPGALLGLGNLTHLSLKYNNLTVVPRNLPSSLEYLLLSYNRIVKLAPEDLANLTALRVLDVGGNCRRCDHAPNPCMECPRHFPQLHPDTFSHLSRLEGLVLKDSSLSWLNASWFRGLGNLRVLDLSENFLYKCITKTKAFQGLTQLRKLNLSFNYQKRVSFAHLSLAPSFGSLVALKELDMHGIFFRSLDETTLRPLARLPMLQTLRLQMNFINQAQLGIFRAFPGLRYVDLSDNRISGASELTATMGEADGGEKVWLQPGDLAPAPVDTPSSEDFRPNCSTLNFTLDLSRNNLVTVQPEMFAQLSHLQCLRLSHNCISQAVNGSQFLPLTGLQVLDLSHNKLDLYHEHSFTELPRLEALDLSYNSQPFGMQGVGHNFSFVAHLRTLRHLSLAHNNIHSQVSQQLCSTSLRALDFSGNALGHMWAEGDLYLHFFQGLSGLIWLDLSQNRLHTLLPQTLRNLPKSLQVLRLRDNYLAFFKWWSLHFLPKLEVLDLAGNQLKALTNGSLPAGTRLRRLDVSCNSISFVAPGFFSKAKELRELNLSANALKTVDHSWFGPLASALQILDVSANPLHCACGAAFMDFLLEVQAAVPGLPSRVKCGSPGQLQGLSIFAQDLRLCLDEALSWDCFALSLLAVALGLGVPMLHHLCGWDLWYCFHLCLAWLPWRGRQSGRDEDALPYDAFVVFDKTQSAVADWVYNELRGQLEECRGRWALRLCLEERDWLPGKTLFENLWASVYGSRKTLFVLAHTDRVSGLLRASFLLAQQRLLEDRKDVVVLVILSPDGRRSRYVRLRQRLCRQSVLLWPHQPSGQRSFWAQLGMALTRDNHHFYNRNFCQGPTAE
How it was run: as §1

Structure (SMILES)	IC50 (human TLR7) [nM]	IC50 (human TLR8) [nM]	IC50 (human TLR9) [nM]
Cc1cc(-c2cc3[nH]nc(C4CCN(C5CCOCC5)CC4)c3cc2C(C)C)cn2ncnc12 [Example 116, 6-(5-isopropyl-3-(1-(tetrahydro-2H-pyran-4-yl)piperidin-4-yl)-1H-indazol-6-yl)-8-methyl-[1,2,4]triazolo[1,5-a]pyridine]	0.6	0.1	6550
Cc1cc(-c2cc3[nH]nc(C4CCN(C5COC5)CC4)c3cc2C(C)C)cn2ncnc12 [Example 120, 6-(5-isopropyl-3-(1-(oxetan-3-yl)piperidin-4-yl)-1H-indazol-6-yl)-8-methyl-[1,2,4]triazolo[1,5-a]pyridine]	7.4	1.1	≥ 50000
Cc1cc(-c2cc3[nH]nc(C4CCN(C(=O)CCN(C)C)CC4)c3cc2C(C)C)cn2ncnc12 [Example 122, 3-(dimethylamino)-1-(4-(5-isopropyl-6-(8-methyl-[1,2,4]triazolo[1,5-a]pyridin-6-yl)-1H-indazol-3-yl)piperidin-1-yl)propan-1-one]	3.2	0.8	13700
Cc1cc(-c2cc3[nH]nc(C4CCN(C(C)C)CC4)c3cc2C(C)C)cn2ncnc12 [Example 123, 6-(5-isopropyl-3-(1-isopropylpiperidin-4-yl)-1H-indazol-6-yl)-8-methyl-[1,2,4] triazolo[1,5-a]pyridine]	0.5	0.1	5660
Cc1cc(-c2cc3[nH]nc(C4CCC(NCCS(C)(=O)=O)CC4)c3cc2C(C)C)cn2ncnc12 (stereo not drawn) [Example 126, 4-(5-isopropyl-6-(8-methyl-[1,2,4]triazolo[1,5-a]pyridin-6-yl)-1H-indazol-3-yl)-N-(2-(methylsulfonyl)ethyl) cyclohexan-1-amine]	1.1	0.1	10800
Cc1cc(-c2cc3[nH]nc(C4CCC(NCCS(C)(=O)=O)CC4)c3cc2C(C)C)cn2ncnc12 (stereo not drawn) [Example 127, 4-(5-isopropyl-6-(8-methyl-[1,2,4]triazolo[1,5-a]pyridin-6-yl)-1H-indazol-3-yl)-N-(2-(methylsulfonyl)ethyl) cyclohexan-1-amine]	1.9	0.1	8470
Cc1cc(-c2cc3[nH]nc(C4CCC(N5CCOCC5)CC4)c3cc2C(C)C)cn2ncnc12 (stereo not drawn) [Example 133, 4-(4-(5-isopropyl-6-(8-methyl-[1,2,4]triazolo[1,5-a]pyridin-6-yl)-1H-indazol-3-yl)cyclohexyl)morpholine]	1.4	0.2	9190
COC1CN(C2CCC(c3n[nH]c4cc(-c5cc(C)c6ncnn6c5)c(C(C)C)cc34)CC2)C1 (stereo not drawn) [Example 144, 6-(5-isopropyl-3-(4-(3-methoxyazetidin-1-yl)cyclohexyl)-1H-indazol-6-yl)-8-methyl-[1,2,4]triazolo[1,5-a]pyridine]	0.8	0.5	13100

Further molecules by falling IC50 (human TLR7), results first:

IC50 (human TLR7) [nM]	IC50 (human TLR8) [nM]	IC50 (human TLR9) [nM]	Structure (SMILES)
4.7	2.6	≥ 50000	Cc1cc(-c2cc3[nH]nc(C4CCC(N5CC(CO)(CO)C5)CC4)c3cc2C(C)C)cn2ncnc12 (stereo not drawn) [Example 146, (1-(4-(5-isopropyl-6-(8-methyl-[1,2,4]triazolo[1,5-a]pyridin-6-yl)-1H-indazol-3-yl)cyclohexyl)azetidine-3,3-diyl)dimethanol]
3.4	0.5	11200	COc1cc(-c2cc3[nH]nc(C4CCN(C(=O)CN(C)C)CC4)c3cc2C(C)C)cn2ncnc12 [Example 117, 2-(dimethylamino)-1-(4-(5-isopropyl-6-(8-methoxy-[1,2,4]triazolo[1,5-a]pyridin-6-yl)-1H-indazol-3-yl)piperidin-1-yl)ethan-1-one]
1.5	0.8	8690	COC1CN(C2CCC(c3n[nH]c4cc(-c5cc(C)c6ncnn6c5)c(C(C)C)cc34)CC2)C1 (stereo not drawn) [Example 145, 6-(5-isopropyl-3-(4-(3-methoxyazetidin-1-yl)cyclohexyl)-1H-indazol-6-yl)-8-methyl-[1,2,4]triazolo[1,5-a]pyridine]
1.4	0.6	8360	Cc1cc(-c2cc3[nH]nc(C4CCC(N5CC(F)C5)CC4)c3cc2C(C)C)cn2ncnc12 (stereo not drawn) [Example 151, 6-(3-(4-(3-fluoroazetidin-1-yl)cyclohexyl)-5-isopropyl-1H-indazol-6-yl)-8-methyl-[1,2,4]triazolo[1,5-a]pyridine]
0.9	0.1	5430	Cc1cc(-c2cc3[nH]nc(C4CCC(N5CCOCC5)CC4)c3cc2C(C)C)cn2ncnc12 (stereo not drawn) [Example 132, 4-(4-(5-isopropyl-6-(8-methyl-[1,2,4]triazolo[1,5-a]pyridin-6-yl)-1H-indazol-3-yl)cyclohexyl)morpholine]
